{"source": "the supplement of paper PMC10307832", "experiment_in_all_cases": "relative viability (nuclei count vs DMSO), 5 days (fraction); higher = more cells survive", "key": {"Pictilisib + Linsitinib": {"compound": "CS(=O)(=O)N1CCN(Cc2cc3nc(-c4cccc5[nH]ncc45)nc(N4CCOCC4)c3s2)CC1 [Pictilisib] + C[C@]1(O)C[C@@H](c2nc(-c3ccc4ccc(-c5ccccc5)nc4c3)c3c(N)nccn32)C1 [Linsitinib] (partner 1 µM)", "summary_of_the_method": "(§1)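 Lung cancer cell lines were pin-tool dosed in 1536-well plates on the day after seeding, with either a lone drug or a fixed anchor-drug dose plus five library-drug doses (not always all listed) in √10 steps. Nuclei were counted on 4× images after 5 days. Relative viability is the ratio of treated-well to vehicle-well nuclei counts, with each value a median of duplicate plates.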"}, "Pictilisib + Tozasertib": {"compound": "CS(=O)(=O)N1CCN(Cc2cc3nc(-c4cccc5[nH]ncc45)nc(N4CCOCC4)c3s2)CC1 [Pictilisib] + Cc1cc(Nc2cc(N3CCN(C)CC3)nc(Sc3ccc(NC(=O)C4CC4)cc3)n2)n[nH]1 [Tozasertib] (partner 0.1 µM)", "summary_of_the_method": "as §1"}, "Pictilisib + Pemetrexed": {"compound": "CS(=O)(=O)N1CCN(Cc2cc3nc(-c4cccc5[nH]ncc45)nc(N4CCOCC4)c3s2)CC1 [Pictilisib] + Nc1nc2[nH]cc(CCc3ccc(C(=O)N[C@@H](CCC(=O)O)C(=O)O)cc3)c2c(=O)[nH]1 [Pemetrexed] (partner 0.2 µM)", "summary_of_the_method": "as §1"}, "MK-2206 + Trametinib": {"compound": "NC1(c2ccc(-c3nc4ccn5c(=O)[nH]nc5c4cc3-c3ccccc3)cc2)CCC1 [MK-2206] + CC(=O)Nc1cccc(-n2c(=O)n(C3CC3)c(=O)c3c(Nc4ccc(I)cc4F)n(C)c(=O)c(C)c32)c1 [Trametinib] (partner 0.02 µM)", "summary_of_the_method": "as §1"}, "MK-2206 + Dasatinib": {"compound": "NC1(c2ccc(-c3nc4ccn5c(=O)[nH]nc5c4cc3-c3ccccc3)cc2)CCC1 [MK-2206] + Cc1nc(Nc2ncc(C(=O)Nc3c(C)cccc3Cl)s2)cc(N2CCN(CCO)CC2)n1 [Dasatinib] (partner 0.075 µM)", "summary_of_the_method": "as §1"}}, "data": [{"cell line": "UMC-11", "values": [{"measurement": "relative viability", "setting": "Pictilisib + Linsitinib; first compound 0.02 µM", "result": 0.973}, {"measurement": "relative viability", "setting": "Pictilisib + Linsitinib; first compound 0.06325 µM", "result": 1.03}, {"measurement": "relative viability", "setting": "Pictilisib + Linsitinib; first compound 0.6325 µM", "result": 1.07}, {"measurement": "relative viability", "setting": "Pictilisib + Linsitinib; first compound 2 µM", "result": 0.928}, {"measurement": "relative viability", "setting": "Pictilisib + Tozasertib; first compound 0.02 µM", "result": 0.202}, {"measurement": "relative viability", "setting": "Pictilisib + Tozasertib; first compound 0.06325 µM", "result": 0.192}, {"measurement": "relative viability", "setting": "Pictilisib + Tozasertib; first compound 0.6325 µM", "result": 0.2}, {"measurement": "relative viability", "setting": "Pictilisib + Tozasertib; first compound 2 µM", "result": 0.216}, {"measurement": "relative viability", "setting": "Pictilisib + Pemetrexed; first compound 0.02 µM", "result": 0.784}, {"measurement": "relative viability", "setting": "Pictilisib + Pemetrexed; first compound 0.06325 µM", "result": 0.787}, {"measurement": "relative viability", "setting": "Pictilisib + Pemetrexed; first compound 0.6325 µM", "result": 0.737}, {"measurement": "relative viability", "setting": "Pictilisib + Pemetrexed; first compound 2 µM", "result": 0.535}, {"measurement": "relative viability", "setting": "MK-2206 + Trametinib; first compound 0.01 µM", "result": 0.594}, {"measurement": "relative viability", "setting": "MK-2206 + Trametinib; first compound 0.03162 µM", "result": 0.717}, {"measurement": "relative viability", "setting": "MK-2206 + Trametinib; first compound 0.3162 µM", "result": 0.772}, {"measurement": "relative viability", "setting": "MK-2206 + Trametinib; first compound 1 µM", "result": 0.966}, {"measurement": "relative viability", "setting": "MK-2206 + Dasatinib; first compound 0.01 µM", "result": 0.465}, {"measurement": "relative viability", "setting": "MK-2206 + Dasatinib; first compound 0.03162 µM", "result": 0.434}, {"measurement": "relative viability", "setting": "MK-2206 + Dasatinib; first compound 0.3162 µM", "result": 0.503}, {"measurement": "relative viability", "setting": "MK-2206 + Dasatinib; first compound 1 µM", "result": 0.475}]}]}
